The test is described as follows: Modulation of capsid assembly in HBV infected in human HepG2.2.15 cells assessed as inhibition of viral DNA replication preincubated for 3 days followed by replacement with fresh medium containing compound and measured after 3 days by QuantiGene assay.
In the case of `CCOC(=O)c1n[nH]c2c1CN(C(=O)Nc1cccc(Cl)c1)CC2`, the EC50 was determined as 260 nM.

With `CCN(C)C(=O)c1n[nH]c2c1CN(C(=O)Nc1cccc(Cl)c1)CC2`, the EC50 stood at 410 nM. As to `CONC(=O)c1n[nH]c2c1CN(C(=O)Nc1cccc(Cl)c1)CC2`, the EC50 is 400 nM. For `O=C(Nc1cccc(Cl)c1)N1CCc2[nH]nc(C(=O)N3CCCCO3)c2C1`, the EC50 was 100 nM. For `CN(OC1COC1)C(=O)c1n[nH]c2c1CN(C(=O)Nc1cccc(Cl)c1)CC2`, the EC50 came out at 24 nM. Regarding `CN(OC1CCCOC1)C(=O)c1n[nH]c2c1CN(C(=O)Nc1cccc(Cl)c1)CC2` (centres undefined), the EC50 came out at 370 nM. On to `C[C@@H]1Cc2nn3c(c2CN1C(=O)Nc1ccc(F)c(Cl)c1)C(=O)N(C)O[C@@H](CO)C3`, for which the EC50 is 4 nM. In the case of `C[C@@H]1Cc2nn3c(c2CN1C(=O)Nc1ccc(F)c(C(F)(F)F)c1)C(=O)N(C)O[C@@H](CO)C3`, the EC50 worked out at 2.7 nM. Under `Cc1cc(NC(=O)N2Cc3c(nn4c3C(=O)N(C)O[C@@H](CO)C4)C[C@H]2C)ccc1F` stands 3.4 nM; under `C[C@@H]1Cc2nn3c(c2CN1C(=O)Nc1ccc(F)c(C#N)c1)C(=O)N(C)O[C@@H](CO)C3`, 7.3 nM; under `C[C@@H]1Cc2nn3c(c2CN1C(=O)Nc1ccc(F)c(C#N)c1)C(=O)N(C)OCC3`, 5.3 nM. Under `C[C@@H]1Cc2nn3c(c2CN1C(=O)Nc1ccc(F)c(Cl)c1)C(=O)N(C)O[C@@H](CN(C)C)C3` stands 21 nM; under `C[C@@H]1Cc2nn3c(c2CN1C(=O)Nc1ccc(F)c(C#N)c1)C(=O)N(C)O[C@@H](C(=O)N(C)CC(F)F)C3`, 5.3 nM. On to `C[C@@H]1Cc2nn3c(c2CN1C(=O)Nc1ccc(F)c(C#N)c1)C(=O)N(C)O[C@@H](COCC(F)F)C3`, for which the EC50 was determined as 5 nM. `C[C@@H]1Cc2nn3c(c2CN1C(=O)Nc1ccc(F)c(C#N)c1)C(=O)N(C)O[C@@H](CF)C3`: the EC50 was found to be 6 nM.

`CN1O[C@@H](CO)Cn2nc3c(c2C1=O)CN(C(=O)Nc1ccc(F)c(Cl)c1)CC3`: the EC50 came out at 4 nM.

Take `CN1O[C@H](CO)Cn2nc3c(c2C1=O)CN(C(=O)Nc1ccc(F)c(Cl)c1)CC3`: the half-maximal effective concentration (EC50) came out at 15 nM. With `CON(C)C(=O)c1n[nH]c2c1CN(C(=O)Nc1cccc(Cl)c1)[C@@H](C)C2` the figure was 31 nM. As to `CON(C)C(=O)c1n[nH]c2c1CN(C(=O)Nc1cccc(Cl)c1)[C@H](C)C2`, the EC50 came to 330 nM. Under `C[C@@H]1Cc2nn3c(c2CN1C(=O)Nc1ccc(F)c(Cl)c1)C(=O)N(C)O[C@H](CO)C3` stands 4 nM; under `C[C@H]1Cc2nn3c(c2CN1C(=O)Nc1ccc(F)c(Cl)c1)C(=O)N(C)O[C@H](CO)C3`, 216 nM; under `C[C@H]1Cc2nn3c(c2CN1C(=O)Nc1ccc(F)c(Cl)c1)C(=O)N(C)O[C@@H](CO)C3`, 54 nM. With `CON(C)C(=O)c1n[nH]c2c1CN(C(=O)Nc1cccc(Cl)c1)CC2` [US10189835, Compound 434] the figure was 54 nM.

As for `CCCC(=O)c1n[nH]c2c1CN(C(=O)Nc1cccc(Cl)c1)CC2` [US10189835, Compound 561], the 50% effective concentration (EC50) was 68 nM. Turning to `CCN(OC)C(=O)c1n[nH]c2c1CN(C(=O)Nc1cccc(Cl)c1)CC2` [US10189835, Compound 594], the EC50 is 90 nM. Regarding `CON(C(=O)c1n[nH]c2c1CN(C(=O)Nc1cccc(Cl)c1)CC2)C(C)C` [US10189835, Compound 595], the EC50 came to 210 nM.

Regarding `CCON(C)C(=O)c1n[nH]c2c1CN(C(=O)Nc1cccc(Cl)c1)CC2` [US10189835, Compound 599], the EC50 turned out to be 63 nM. On to `CC(C)ON(C)C(=O)c1n[nH]c2c1CN(C(=O)Nc1cccc(Cl)c1)CC2` [US10189835, Compound 600], for which the EC50 stood at 57 nM. Regarding `O=C(Nc1cccc(Cl)c1)N1CCc2[nH]nc(C(=O)N3CCCO3)c2C1` [US10189835, Compound 699], the EC50 came to 120 nM.

For `CCCON(C)C(=O)c1n[nH]c2c1CN(C(=O)Nc1cccc(Cl)c1)CC2` [US10189835, Compound 795], the EC50 amounted to 210 nM. Take `CN(OCCO)C(=O)c1n[nH]c2c1CN(C(=O)Nc1cccc(Cl)c1)CC2` [US10189835, Compound 796]: the EC50 came to 155 nM. As to `CN(OC1CCC1)C(=O)c1n[nH]c2c1CN(C(=O)Nc1cccc(Cl)c1)CC2` [US10189835, Compound 805], the EC50 is 97 nM. Take `CN(OC1CCOC1)C(=O)c1n[nH]c2c1CN(C(=O)Nc1cccc(Cl)c1)CC2` (centres undefined) [US10189835, Compound 910]: the EC50 is 300 nM. Regarding `CN1CC(ON(C)C(=O)c2n[nH]c3c2CN(C(=O)Nc2cccc(Cl)c2)CC3)C1` [US10189835, Compound 912], the EC50 amounted to 200 nM.

These data come from BindingDB's records for doi:10.1016/j.bmcl.2021.128353 (Novira Therapeutics, 2021).
